The target of one experiment is T1, JAK2 (Homo sapiens, UniProt O60674).
T1 construct: endogenous in cells; host or cells: mixed Molt4/Ramos lysate (1:2)
In words: Kinobeads assay, JAK2. Type of experiment: binding. The note with it: mixed Molt4/Ramos lysate, read-out: Inhibition values (IC50) JAK2. The gist of the method: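 Competition binding in mixed Molt4/Ramos cell lysate (1:2, 10 mg/mL protein) with Kinobeads carrying immobilized aminopyrido-pyrimidine ligand, 3 h in cold room; 9-step 1:3 compound dilution series from 5 mM DMSO stock. Bead-bound JAK2/JAK3 eluted and quantified by antibody dot blot with infrared detection; IC50 from dose-response curves.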

For another experiment, the target named is T2, Aurora A (Homo sapiens, UniProt O14965).
T2 construct: cell lysates from Jurkat cells (ATCC TIB-152) used; endogenous in cells; host or cells: Jurkat cells (ATCC TIB-152), treated with pervanadate
T2 sequence (O14965 1-403): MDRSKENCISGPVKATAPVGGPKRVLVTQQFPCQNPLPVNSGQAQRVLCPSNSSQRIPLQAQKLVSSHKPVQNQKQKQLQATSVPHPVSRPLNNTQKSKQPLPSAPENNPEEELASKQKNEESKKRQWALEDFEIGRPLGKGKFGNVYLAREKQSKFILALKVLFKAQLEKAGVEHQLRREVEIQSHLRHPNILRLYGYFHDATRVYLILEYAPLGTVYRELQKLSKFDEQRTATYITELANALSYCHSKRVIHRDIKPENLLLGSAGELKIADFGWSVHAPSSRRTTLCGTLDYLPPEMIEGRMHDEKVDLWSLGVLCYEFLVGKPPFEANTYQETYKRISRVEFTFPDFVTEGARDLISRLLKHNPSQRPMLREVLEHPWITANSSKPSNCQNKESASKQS
In words: Kinobeads assay, Aurora A. Type of experiment: binding. The note with it: for IC50: lysate of pervanadate-treated Jurkat cells, read-out: Inhibition values (IC50) Aur A.

Molecules are shown by their SMILES. A value given as a limit tells only on which side of the number the result lay.

T1 sequence (O60674 whole entry): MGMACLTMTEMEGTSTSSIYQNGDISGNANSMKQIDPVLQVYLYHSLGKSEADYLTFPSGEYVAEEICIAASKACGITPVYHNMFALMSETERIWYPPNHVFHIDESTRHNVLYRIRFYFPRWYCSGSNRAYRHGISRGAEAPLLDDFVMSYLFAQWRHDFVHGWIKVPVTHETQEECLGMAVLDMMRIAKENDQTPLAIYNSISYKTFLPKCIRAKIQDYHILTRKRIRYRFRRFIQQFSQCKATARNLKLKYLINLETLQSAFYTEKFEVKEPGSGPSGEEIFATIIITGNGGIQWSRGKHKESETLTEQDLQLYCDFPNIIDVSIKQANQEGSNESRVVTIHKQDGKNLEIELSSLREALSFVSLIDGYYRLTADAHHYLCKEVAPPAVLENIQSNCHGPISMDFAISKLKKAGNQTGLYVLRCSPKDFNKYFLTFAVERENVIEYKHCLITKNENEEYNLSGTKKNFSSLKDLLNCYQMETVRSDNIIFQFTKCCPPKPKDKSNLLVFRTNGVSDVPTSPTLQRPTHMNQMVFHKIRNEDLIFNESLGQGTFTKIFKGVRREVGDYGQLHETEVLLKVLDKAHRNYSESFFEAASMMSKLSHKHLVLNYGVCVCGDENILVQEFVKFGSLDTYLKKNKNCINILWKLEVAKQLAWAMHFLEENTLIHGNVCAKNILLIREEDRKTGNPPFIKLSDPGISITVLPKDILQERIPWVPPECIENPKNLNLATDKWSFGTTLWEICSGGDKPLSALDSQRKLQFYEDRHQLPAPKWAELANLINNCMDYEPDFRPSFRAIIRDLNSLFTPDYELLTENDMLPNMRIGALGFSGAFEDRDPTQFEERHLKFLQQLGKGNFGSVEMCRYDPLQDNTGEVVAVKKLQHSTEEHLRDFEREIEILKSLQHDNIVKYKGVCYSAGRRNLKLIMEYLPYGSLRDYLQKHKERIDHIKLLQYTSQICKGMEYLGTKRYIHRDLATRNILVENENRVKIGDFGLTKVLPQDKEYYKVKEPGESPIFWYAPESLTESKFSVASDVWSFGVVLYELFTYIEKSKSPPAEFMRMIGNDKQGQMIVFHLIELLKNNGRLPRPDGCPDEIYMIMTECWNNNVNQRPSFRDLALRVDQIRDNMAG

As for `CN(C)CCCn1cc(Nc2ncc3cnn(Cc4c(F)c(F)cc(N5CCOCC5)c4F)c3n2)cn1` [Example 42, N-(1-(3-(Dimethylamino)propyl)-1H-pyrazol-4-yl)-1-(2,3,6-trifluoro-5-morpholinobenzyl)-1H-pyrazolo[3,4-d]pyrimidin-6-amine], the IC50 at JAK2 and at Aurora A was 1000 to 10000 nM throughout. The “JAK3/AurA Fold Selectivity” value at Aurora A is given as more than 50 Fold.

With `CN(C)CCCn1cc(Nc2ncc3cnn(Cc4cccc(N5CCOCC5)c4F)c3n2)cn1` [Example 43, N-(1-(3-(Dimethylamino)propyl)-1H-pyrazol-4-yl)-1-(2-fluoro-3-morpholinobenzyl)-1H-pyrazolo[3,4-d]pyrimidin-6-amine], the IC50 on JAK2 and at Aurora A was 1000 to 10000 nM each time. At Aurora A, the “JAK3/AurA Fold Selectivity” value is more than 50 Fold.

As to `OCCn1cc(Nc2ncc3cnn(Cc4cc(N5CCOCC5)ccc4F)c3n2)cn1` [Example 44, 2-(4-((1-(2-Fluoro-5-morpholinobenzyl)-1H-pyrazolo[3,4-d]pyrimidin-6-yl)amino)-1H-pyrazol-1-yl)ethanol], the values for the IC50 at JAK2 and on Aurora A were not below 10000 nM and 100 to 1000 nM, respectively. In addition, on Aurora A, the “JAK3/AurA Fold Selectivity” value was 10-50 Fold.

Regarding `OCCn1cc(Nc2ncc3cnn(Cc4c(F)c(F)cc(N5CCOCC5)c4F)c3n2)cn1` [Example 45, 2-(4-((1-(2,3,6-Trifluoro-5-morpholinobenzyl)-1H-pyrazolo[3,4-d]pyrimidin-6-yl)amino)-1H-pyrazol-1-yl)ethanol], the half-inhibitory concentration (IC50) on JAK2 was in the range of 1000 to 10000 nM. Besides, on Aurora A, the “JAK3/AurA Fold Selectivity” value is 10-50 Fold and the IC50 was in the range of 100 to 1000 nM.

With `O=C1COCCN1c1cccc(Cn2ncc3cnc(Nc4cnn(CCO)c4)nc32)c1F` [Example 46, 4-(2-Fluoro-3-((6-((1-(2-hydroxyethyl)-1H-pyrazol-4-yl)amino)-1H-pyrazolo[3,4-d]pyrimidin-1-yl)methyl)phenyl)morpholin-3-one], the IC50 on JAK2 was 1000 to 10000 nM. At Aurora A, the “JAK3/AurA Fold Selectivity” value is 10-50 Fold and the IC50 lay within 100 to 1000 nM.

On to `OCCn1cc(Nc2ncc3cnn(Cc4cccc(N5CCNCC5)c4)c3n2)cn1` [Example 47, 2-(4-((1-(3-(piperazin-1-yl)benzyl)-1H-pyrazolo[3,4-d]pyrimidin-6-yl)amino)-1H-pyrazol-1-yl)ethanol], for which, on JAK2, the 50% inhibitory concentration (IC50) is 1000 to 10000 nM. At Aurora A, the “JAK3/AurA Fold Selectivity” value is 10-50 Fold and the IC50 lay in the range of 100 to 1000 nM.

On to `c1cc(Cn2ncc3cnc(Nc4cnn(CC5CCCNC5)c4)nc32)cc(N2CCOCC2)c1` (stereo not drawn) [Example 48, 1-(3-Morpholinobenzyl)-N-(1-(piperidin-3-ylmethyl)-1H-pyrazol-4-yl)-1H-pyrazolo[3,4-d]pyrimidin-6-amine], for which the concentration for half-maximal inhibition (IC50) on JAK2 is 1000 to 10000 nM. At Aurora A, the “JAK3/AurA Fold Selectivity” value is given as more than 50 Fold and the IC50 lay within 1000 to 10000 nM.

With `Cn1cc(Nc2ncc3cnn(Cc4cc(F)cc(N5CCOCC5)c4)c3n2)cn1` [Example 49, 1-(3-Fluoro-5-morpholinobenzyl)-N-(1-methyl-1H-pyrazol-4-yl)-1H-pyrazolo[3,4-d]pyrimidin-6-amine], the IC50 on JAK2 lay within 1000 to 10000 nM. At Aurora A, the “JAK3/AurA Fold Selectivity” value was 10-50 Fold and the IC50 is 100 to 1000 nM.

`CN(C)CCCn1cc(Nc2ncc3cnn(Cc4cccc(N5CCOCC5=O)c4F)c3n2)cn1` [Example 50, 4-(3-((6-((1-(3-(Dimethylamino)propyl)-1H-pyrazol-4-yl)amino)-1H-pyrazolo[3,4-d]pyrimidin-1-yl)methyl)-2-fluorophenyl)morpholin-3-one]: the IC50 is 1000 to 10000 nM at JAK2 and 100 to 1000 nM on Aurora A. Besides, the “JAK3/AurA Fold Selectivity” value on Aurora A is reported as more than 50 Fold.

On to `OCCn1cc(Nc2ncc3cnn(Cc4cc(F)cc(N5CCOCC5)c4)c3n2)cn1` [Example 51, 2-(4-((1-(3-Fluoro-5-morpholinobenzyl)-1H-pyrazolo[3,4-d]pyrimidin-6-yl)amino)-1H-pyrazol-1-yl)ethanol], for which the IC50 at JAK2 lay within 1000 to 10000 nM. For the same compound, on Aurora A, the “JAK3/AurA Fold Selectivity” value is 10-50 Fold and the IC50 fell in the range of 100 to 1000 nM.

For the compound `Cn1cc(Nc2ncc3cnn(Cc4cc(F)cc(N5CCOCC5=O)c4)c3n2)cn1` [Example 52, 4-(3-Fluoro-5-((6-((1-methyl-1H-pyrazol-4-yl)amino)-1H-pyrazolo[3,4-d]pyrimidin-1-yl)methyl)phenyl)morpholin-3-one], the IC50 at JAK2 fell in the range of 1000 to 10000 nM. Moreover, on Aurora A, the “JAK3/AurA Fold Selectivity” value is more than 50 Fold and the IC50 is 100 to 1000 nM.

On to `Cn1cc(Nc2ncc3cnn(Cc4cc(N5CCOCC5=O)cc(F)c4F)c3n2)cn1` [Example 53, 4-(3,4-Difluoro-5-((6-((1-methyl-1H-pyrazol-4-yl)amino)-1H-pyrazolo[3,4-d]pyrimidin-1-yl)methyl)phenyl)morpholin-3-one], for which, at JAK2, the IC50 was not below 10000 nM. For the same compound, at Aurora A, the “JAK3/AurA Fold Selectivity” value is given as more than 50 Fold and the IC50 fell in the range of 100 to 1000 nM.

Regarding `Cn1cc(Nc2ncc3cnn(Cc4cccc(N5CCNCC5=O)c4F)c3n2)cn1` [Example 54, 1-(2-Fluoro-3-((6-((1-methyl-1H-pyrazol-4-yl)amino)-1H-pyrazolo[3,4-d]pyrimidin-1-yl)methyl)phenyl)piperazin-2-one], the IC50 at JAK2 lay within 1000 to 10000 nM; at Aurora A it was 100 to 1000 nM. For the same compound, the “JAK3/AurA Fold Selectivity” value at Aurora A was more than 50 Fold.

On to `O=C1CNCCN1c1cccc(Cn2ncc3cnc(Nc4cnn(CCO)c4)nc32)c1F` [Example 55, 1-(2-Fluoro-3-((6-((1-(2-hydroxyethyl)-1H-pyrazol-4-yl)amino)-1H-pyrazolo[3,4-d]pyrimidin-1-yl)methyl)phenyl)piperazin-2-one], for which the IC50 at JAK2 lay in the range of 1000 to 10000 nM. For the same compound, at Aurora A, the “JAK3/AurA Fold Selectivity” value is listed as 10-50 Fold and the IC50 lay within 100 to 1000 nM.

For the compound `OCCn1cc(Nc2ncc3cnn(Cc4cc(N5CCOCC5)cc(F)c4F)c3n2)cn1` [Example 56, 2-(4-((1-(2,3-Difluoro-5-morpholinobenzyl)-1H-pyrazolo[3,4-d]pyrimidin-6-yl)amino)-1H-pyrazol-1-yl)ethanol], the 50% inhibitory concentration (IC50) at JAK2 is not below 10000 nM. On Aurora A, the “JAK3/AurA Fold Selectivity” value is more than 50 Fold and the IC50 was in the range of 1000 to 10000 nM.

As to `O=C1CNCCN1c1cccc(Cn2ncc3cnc(Nc4cnn(CCO)c4)nc32)c1` [Example 57, 1-(3-((6-((1-(2-Hydroxyethyl)-1H-pyrazol-4-yl)amino)-1H-pyrazolo[3,4-d]pyrimidin-1-yl)methyl)phenyl)piperazin-2-one], the values for the IC50 at JAK2 and on Aurora A were not below 10000 nM and 100 to 1000 nM, respectively. In addition, the “JAK3/AurA Fold Selectivity” value on Aurora A is reported as 10-50 Fold.

As for `O=C1COCCN1c1cc(F)cc(Cn2ncc3cnc(Nc4cnn(CCO)c4)nc32)c1` [Example 58, 4-(3-Fluoro-5-((6-((1-(2-hydroxyethyl)-1H-pyrazol-4-yl)amino)-1H-pyrazolo[3,4-d]pyrimidin-1-yl)methyl)phenyl)morpholin-3-one], the figures for the IC50 at JAK2 and on Aurora A were 1000 to 10000 nM and 100 to 1000 nM, respectively. Besides, the “JAK3/AurA Fold Selectivity” value on Aurora A is reported as 10-50 Fold.

For the compound `O=C1COCCN1c1cc(F)c(F)c(Cn2ncc3cnc(Nc4cnn(CCO)c4)nc32)c1` [Example 59, 4-(3,4-Difluoro-5-((6-((1-(2-hydroxyethyl)-1H-pyrazol-4-yl)amino)-1H-pyrazolo[3,4-d]pyrimidin-1-yl)methyl)phenyl)morpholin-3-one], the 50% inhibitory concentration (IC50) at JAK2 was not below 10000 nM. In addition, at Aurora A, the “JAK3/AurA Fold Selectivity” value was 10-50 Fold and the IC50 fell in the range of 100 to 1000 nM.

For `c1cc(Cn2ncc3cnc(Nc4cnn(CC5CCNC5)c4)nc32)cc(N2CCOCC2)c1` (stereo not drawn) [Example 60, 1-(3-Morpholinobenzyl)-N-(1-(pyrrolidin-3-ylmethyl)-1H-pyrazol-4-yl)-1H-pyrazolo[3,4-d]pyrimidin-6-amine], on JAK2, the IC50 lay in the range of 1000 to 10000 nM. In addition, at Aurora A, the “JAK3/AurA Fold Selectivity” value is more than 50 Fold and the IC50 was in the range of 1000 to 10000 nM.

On to `Cn1cc(Nc2ncc3cnn(Cc4c(F)c(F)cc(N5CCOCC5=O)c4F)c3n2)cn1` [Example 61, 4-(2,4,5-Trifluoro-3-((6-((1-methyl-1H-pyrazol-4-yl)amino)-1H-pyrazolo[3,4-d]pyrimidin-1-yl)methyl)phenyl)morpholin-3-one], for which the IC50 on JAK2 fell in the range of 1000 to 10000 nM. Moreover, on Aurora A, the “JAK3/AurA Fold Selectivity” value is listed as more than 50 Fold and the IC50 fell in the range of 100 to 1000 nM.

With `O=C1COCCN1c1cc(F)c(F)c(Cn2ncc3cnc(Nc4cnn(CCO)c4)nc32)c1F` [Example 62, 4-(2,4,5-Trifluoro-3-((6-((1-(2-hydroxyethyl)-1H-pyrazol-4-yl)amino)-1H-pyrazolo[3,4-d]pyrimidin-1-yl)methyl)phenyl)morpholin-3-one], the IC50 at JAK2 lay in the range of 1000 to 10000 nM. Also, at Aurora A, the “JAK3/AurA Fold Selectivity” value is 10-50 Fold and the IC50 was 100 to 1000 nM.

As for `O=C1CNCCN1c1cc(F)cc(Cn2ncc3cnc(Nc4cnn(CCO)c4)nc32)c1` [Example 63, 1-(3-Fluoro-5-((6-((1-(2-hydroxyethyl)-1H-pyrazol-4-yl)amino)-1H-pyrazolo[3,4-d]pyrimidin-1-yl)methyl)phenyl)piperazin-2-one], the IC50 at JAK2 is 1000 to 10000 nM. Besides, on Aurora A, the “JAK3/AurA Fold Selectivity” value is given as 10-50 Fold and the IC50 is 100 to 1000 nM.

For the origin of these results see US9040545B2, “Heterocyclyl pyrazolopyrimidine analogues as selective JAK inhibitors” (Cellzome Limited, priority 2010, dated 2015).
